Measured values published in the supplement of paper PMC11451515.

Legend:
Conditions in all cases: 48 h
[1] = tested on: NOMO1; assay: cell viability relative to DMSO control; higher = less cytotoxic
Method in brief: (§1)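 Three leukemia lines were tested: NOMO1 and SEM at 500 cells/well and P12-Ichikawa at 1000 cells/well. Each was adapted for at least four passages in each medium and seeded in 5 μl in 1536-well plates, and library compounds in DMSO were pin-dosed from 47 μM to 0.79 nM in 11 threefold steps. After 48 h at 37°C, CellTiter-Glo One luminescence was read. Viability is a percentage relative to DMSO wells on each plate, with cell-free wells as background.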

[2] = tested on: P12-Ichikawa; assay: as above
Method in brief: as §1

[3] = tested on: SEM cells; assay: as above
Method in brief: as §1

[4] = tested on: NOMO1; assay: AUC of viability dose-response curve (% viability x log10 dose units); higher = less sensitive
Method in brief: (§2)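 Viability of medium-adapted leukemia cells was measured by CellTiter-Glo One luminescence after 48 h at 37°C with library compounds in DMSO. Doses were 11 threefold steps from 47 μM to 0.79 nM, in 1536-well plates at 500 or 1000 cells/well. Signals were normalised per plate to DMSO and cell-free wells and fitted with a four-parameter log-logistic model on log10 dose. Area under the curve was integrated by trapezoidal rule, with curves exceeding full viability scaled and failed quality-control curves removed.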

[5] = tested on: P12-Ichikawa; assay: as above
Method in brief: as §2

[6] = tested on: SEM cells; assay: as above
Method in brief: as §2

C\C1=C\N([C@H]2C[C@H](N=[N+]=[N-])[C@@H](CO)O2)C(=O)NC1=O
cell viability [%]
Conditions | [1] | [2] | [3]
HPLM + 10% dialyzed FBS, 0.000781 µM | 94.1 | 101 | 65.4
HPLM + 10% dialyzed FBS, 0.00234 µM | 109 | 108 | 68.8
HPLM + 10% dialyzed FBS, 0.00702 µM | 99.4 | 107 | 82.4
HPLM + 10% dialyzed FBS, 0.0211 µM | 105 | 120 | 71
HPLM + 10% dialyzed FBS, 0.0632 µM | 111 | 111 | 80.8
HPLM + 10% dialyzed FBS, 0.19 µM | 120 | 111 | 93.1
HPLM + 10% dialyzed FBS, 0.569 µM | 109 | 111 | 95.4
HPLM + 10% dialyzed FBS, 1.71 µM | 61 | 120 | 86.5
HPLM + 10% dialyzed FBS, 5.12 µM | 29.7 | 115 | 81.6
HPLM + 10% dialyzed FBS, 15.4 µM | 19.8 | 23.2 | 84.3
HPLM + 10% dialyzed FBS, 46.1 µM | 25.7 | 15.1 | 79.3
RPMI 5 mM glucose + 10% FBS, 0.000781 µM | 88.2 | 99.8 | 82.5
RPMI 5 mM glucose + 10% FBS, 0.00234 µM | 109 | 120 | 85.6
RPMI 5 mM glucose + 10% FBS, 0.00702 µM | 105 | 122 | 88.9
RPMI 5 mM glucose + 10% FBS, 0.0211 µM | 106 | 111 | 89.3
RPMI 5 mM glucose + 10% FBS, 0.0632 µM | 96.7 | 116 | 84.8
RPMI 5 mM glucose + 10% FBS, 0.19 µM | 97.5 | 116 | 101
RPMI 5 mM glucose + 10% FBS, 0.569 µM | 106 | 121 | 88.4
RPMI 5 mM glucose + 10% FBS, 1.71 µM | 29.3 | 121 | 104
RPMI 5 mM glucose + 10% FBS, 5.12 µM | 15.1 | 119 | 92.2
RPMI 5 mM glucose + 10% FBS, 15.4 µM | 14.3 | 34.4 | 101
RPMI 5 mM glucose + 10% FBS, 46.1 µM | 10.2 | 25.3 | 82.2
RPMI 5 mM glucose + 10% dialyzed FBS, 0.000781 µM | 107 | 97.1 | 72.2
RPMI 5 mM glucose + 10% dialyzed FBS, 0.00234 µM | 110 | 109 | 83.9
RPMI 5 mM glucose + 10% dialyzed FBS, 0.00702 µM | 109 | 112 | 96
RPMI 5 mM glucose + 10% dialyzed FBS, 0.0211 µM | 110 | 101 | 98.4
RPMI 5 mM glucose + 10% dialyzed FBS, 0.0632 µM | 105 | 113 | 117
RPMI 5 mM glucose + 10% dialyzed FBS, 0.19 µM | 103 | 111 | 92
RPMI 5 mM glucose + 10% dialyzed FBS, 0.569 µM | 113 | 116 | 105
RPMI 5 mM glucose + 10% dialyzed FBS, 1.71 µM | 68.6 | 110 | 71.8
RPMI 5 mM glucose + 10% dialyzed FBS, 5.12 µM | 20.8 | 103 | 93.2
RPMI 5 mM glucose + 10% dialyzed FBS, 15.4 µM | 19.6 | 79.9 | 85.7
RPMI 5 mM glucose + 10% dialyzed FBS, 46.1 µM | 18.9 | 62 | 62.4

AUC of viability dose-response curve
Conditions | [4] | [5] | [6]
HPLM + 10% dialyzed FBS | 365 | 419 | 388
RPMI 5 mM glucose + 10% FBS | 339 | 425 | 434
RPMI 5 mM glucose + 10% dialyzed FBS | 362 | 452 | 425

CC(=O)NC(CS)C(=O)O (configuration not stated)
cell viability [%]
Conditions | [1] | [2] | [3]
HPLM + 10% dialyzed FBS, 0.000781 µM | 81.1 | 81.9 | 71.5
HPLM + 10% dialyzed FBS, 0.00234 µM | 93.2 | 82.9 | 71.7
HPLM + 10% dialyzed FBS, 0.00702 µM | 104 | 88.7 | 75.7
HPLM + 10% dialyzed FBS, 0.0211 µM | 82.7 | 88.4 | 63.5
HPLM + 10% dialyzed FBS, 0.0632 µM | 96.9 | 91.3 | 82.3
HPLM + 10% dialyzed FBS, 0.19 µM | 81.6 | 86.4 | 62.5
HPLM + 10% dialyzed FBS, 0.569 µM | 78.8 | 89.3 | 66.7
HPLM + 10% dialyzed FBS, 1.71 µM | 97 | 87.2 | 84.1
HPLM + 10% dialyzed FBS, 5.12 µM | 78.2 | 87.3 | 90
HPLM + 10% dialyzed FBS, 15.4 µM | 26.7 | 18.4 | 36.1
HPLM + 10% dialyzed FBS, 46.1 µM | 27.5 | 27.5 | 62.3
RPMI 5 mM glucose + 10% FBS, 0.000781 µM | 72.7 | 75.5 | 93.5
RPMI 5 mM glucose + 10% FBS, 0.00234 µM | 81.1 | 74.2 | 93.7
RPMI 5 mM glucose + 10% FBS, 0.00702 µM | 75.3 | 81.5 | 87.8
RPMI 5 mM glucose + 10% FBS, 0.0211 µM | 74.4 | 78.2 | 99.1
RPMI 5 mM glucose + 10% FBS, 0.0632 µM | 75.8 | 81.4 | 99.8
RPMI 5 mM glucose + 10% FBS, 0.19 µM | 75.2 | 69.5 | 90.8
RPMI 5 mM glucose + 10% FBS, 0.569 µM | 82.7 | 83.3 | 95.4
RPMI 5 mM glucose + 10% FBS, 1.71 µM | 79.5 | 80.4 | 116
RPMI 5 mM glucose + 10% FBS, 5.12 µM | 84.5 | 88.8 | 114
RPMI 5 mM glucose + 10% FBS, 15.4 µM | 30.5 | 28.6 | 27.7
RPMI 5 mM glucose + 10% FBS, 46.1 µM | 70.4 | 62.5 | 29.2
RPMI 5 mM glucose + 10% dialyzed FBS, 0.000781 µM | 81.1 | 80.4 | 76.7
RPMI 5 mM glucose + 10% dialyzed FBS, 0.00234 µM | 77.8 | 80.4 | 57.8
RPMI 5 mM glucose + 10% dialyzed FBS, 0.00702 µM | 86.7 | 76.4 | 86.2
RPMI 5 mM glucose + 10% dialyzed FBS, 0.0211 µM | 88.9 | 82.7 | 65.5
RPMI 5 mM glucose + 10% dialyzed FBS, 0.0632 µM | 88.1 | 89.7 | 88.4
RPMI 5 mM glucose + 10% dialyzed FBS, 0.19 µM | 75.8 | 79 | 64
RPMI 5 mM glucose + 10% dialyzed FBS, 0.569 µM | 85.6 | 84.4 | 83.6
RPMI 5 mM glucose + 10% dialyzed FBS, 1.71 µM | 80.1 | 88.8 | 78.7
RPMI 5 mM glucose + 10% dialyzed FBS, 5.12 µM | 90.7 | 77.2 | 108
RPMI 5 mM glucose + 10% dialyzed FBS, 15.4 µM | 27.8 | 27.8 | 30.9
RPMI 5 mM glucose + 10% dialyzed FBS, 46.1 µM | 75.9 | 45.6 | 54.9

AUC of viability dose-response curve
Conditions | HPLM + 10% dialyzed FBS | RPMI 5 mM glucose + 10% FBS | RPMI 5 mM glucose + 10% dialyzed FBS
[4] | 376 | 352 | 377
[5] | 369 | 354 | 359

O=C(NC[C@H]1CN(c2ccc(N3CCOCC3=O)cc2)C(=O)O1)c1ccc(Cl)s1
cell viability [%]
Conditions | HPLM + 10% dialyzed FBS | RPMI 5 mM glucose + 10% FBS | RPMI 5 mM glucose + 10% dialyzed FBS
[2], 0.000781 µM | 104 | – | 103
[2], 0.00234 µM | 111 | – | 119
[2], 0.00702 µM | 112 | – | 115
[2], 0.0211 µM | 115 | – | 125
[2], 0.0632 µM | 113 | – | 126
[2], 0.19 µM | 119 | – | 123
[2], 0.569 µM | 122 | – | 134
[2], 1.71 µM | 114 | – | 132
[2], 5.12 µM | 16 | – | 51.1
[2], 15.4 µM | 13.4 | – | 37.8
[2], 46.1 µM | 12.4 | – | 19.3
[3], 0.000781 µM | 89.8 | 103 | 109
[3], 0.00234 µM | 107 | 113 | 105
[3], 0.00702 µM | 104 | 120 | 118
[3], 0.0211 µM | 107 | 114 | 98.9
[3], 0.0632 µM | 104 | 102 | 116
[3], 0.19 µM | 103 | 117 | 132
[3], 0.569 µM | 125 | 129 | 120
[3], 1.71 µM | 108 | 109 | 129
[3], 5.12 µM | 116 | 117 | 136
[3], 15.4 µM | 134 | 123 | 134
[3], 46.1 µM | 118 | 115 | 122

AUC of viability dose-response curve
Conditions | [4] | [5] | [6]
HPLM + 10% dialyzed FBS | 345 | 372 | 423
RPMI 5 mM glucose + 10% FBS | 312 | 376 | 459
RPMI 5 mM glucose + 10% dialyzed FBS | 345 | 395 | 444
